Data set [1] concerns pancreatic cancer cells PANC-1 (ATCC CRL-1469). Put plainly: SRB (Sulforhodamine B) assay in PANC-1 cells. In kind it is cell-based. To be noted: Homo sapiens, read-out: IC50 (PANC-1). Here is the method:
(§1) FIGS. 1A-1B show the IC50 curves of the twelve investigational β-lactams in pancreatic cancer cells PANC-1 (ATCC CRL-1469) and normal pancreatic ductal epithelial cells (ATCC CRL-4038). The GraphPad Prism software was used to process the results. The IC50 values were determined by SRB (Sulforhodamine B) assay following standard procedure. PANC-1 cells were plated in 96 well plates and treated with 1, 10, 100, 1000 and 10,000 nM of each of the drugs in triplicate for 72 hrs. Cells were fixed, washed and stained with SRB dye, the stained cells were washed, and the dye solubilized. It was read using a plate reader at 565 nm. The IC50 values were calculated assuming that the 10 μM sample has reached saturation. Following similar way, IC50 values were determined for normal pancreatic ductal epithelial cells.
(§2) As mentioned earlier, PANC-1 is referred to generically as the “gold standard of pancreatic cancers” representing as it does almost total resistance to GEM, the first line treatment currently used in clinical situations. Pancreatic cancer cells PANC-1 (ATCC CRL-1469) and normal pancreatic ductal epithelial cells (ATCC CRL-4038) were used in this study. The GraphPad Prism software was used to process the results. […] Cells were fixed, washed and stained with SRB dye, the stained cells were washed, and the dye solubilized. It was read using a plate reader at 565 nm. The IC50 values were calculated assuming that the 10 μM sample has reached saturation. Following similar way, IC50 values were determined for normal pancreatic ductal epithelial cells.

Data set [2] deals with normal pancreatic ductal epithelial cells (ATCC CRL-4038). Put plainly: SRB (Sulforhodamine B) assay in normal pancreatic ductal epithelial cells. It is filed as cell-based. To be noted: Epithelial cell, read-out: IC50 (NPC). As to the method:
as §1, §2

Another data set relates to PANC-1 tumorspheres. Put plainly: 3D-tumorsphere formation assay. In kind it is cell-based, human. To be noted: for IC50: Homo sapiens, tumorspheres larger than 100 micrometers counted after 144 hrs. Here is the method:
Number of tumorspheres formed can be used to distinguish the efficacy of different anticancer drugs in a more physically acceptable method than 2D culture. Based on selectivity and toxicity towards PANC-1 cells in comparison to normal pancreatic ductal epithelial cells (Table D), six compounds (A, B, C, E, F, and G) were chosen for the 3D-tumorsphere formation assay. The assay was carried out by following the protocol developed by Johnson et al., (2013). PANC-1 cells (5000) were plated as single cells in Corning ultra-low attachment 24 well plates in 0.5 ml DMEM+10% FBS. The cells were grown in a humidified atmosphere of 5% CO2 for 168 hrs. 0.1 ml Media was added on 72nd and 144 hrs. The β-lactams were dissolved in DMSO and maintained at −20° C. On the day of assay, on the addition of media, the drugs were freshly diluted in media. The final concentrations of drugs were 0, 1 nM, 10 nM, 100 nM, 1 uM, 10 μM. After 144 hours the total number tumorspheres that were larger than 100 micrometers were counted in a field of 1 mm×1 mm at 10× magnification in a bright field microscope. The data was plotted and the IC50 value was calculated.
3D-tumorsphere formation assay is considered to be a fast and economical intermediary step between in vitro and in vivo biological evaluations. A tumorsphere is a solid, spherical formation developed from the proliferation of a single cancer stem/progenitor cell in 3D culture. These cells are easily distinguishable from single or aggregated as they appear to become fused together and individual cells cannot be appearing to become fused together and individual cells cannot be identified. The size can vary from less than 50 micrometers to 250 micrometers. The number of tumorspheres formed can be used to characterize the cancer stem cell population within different in vitro cultured cancer cell lines. The number of tumorspheres formed can also be used to distinguish the efficacy of different anticancer drugs in a more physically acceptable method than 2D culture. Based on selectivity and toxicity towards PANC-1 cells in comparison to normal pancreatic ductal epithelial cells (Table D), six compounds (A, B, C, E, F, and G) were chosen for the 3D-tumorsphere formation assay. The assay was carried out by following the protocol developed by Johnson et al., (2013). […] The below steps were followed to accomplish the assay. • 5000 PANC-1 cells were plated as single cells in Corning ultra-low attachment 24 well plates in 0.5 ml DMEM+10% FBS. • Cells were grown in a humidified atmosphere of 5% CO2 for 168 hrs. 0.1 ml Media was added on 72nd and 144 hrs. • Drugs were dissolved in DMSO and maintained at −20° C. On the day of assay, on the addition of media, the drugs were freshly diluted in media. • The final concentrations of drugs were 0, 1 nM, 10 nM, 100 nM, 1 μM, 10 μM. • After 144 hrs the total number tunorspheres that were larger than 100 micrometers were counted in a field of 1 mm×1 mm at 10× magnification in a bright field microscope. The data was plotted and the IC50 value was calculated.

A further data set has as its system HPAF-II. In words: Cytotoxicity IC50 in HPAF-II cells. In kind it is cell-based. Particulars: Homo sapiens; HPAF-II cell line; read-out: IC50 (mean ± standard error). The source says:
(§3) B. Cytotoxicity Studies: Determination of IC50 Values (Single Run) in Capan-2, HPAC. HPAF-II, and HS766T Cell Lines
(§4) Capan-2, HPAC. HPAF-H, and HS766T. The compounds A, D, E, G, and H were chosen randomly, out of twelve β-laclam molecules, to carry out this evaluation.

The subject of a further data set is HS 766T. In words: Cytotoxicity IC50 in HS 766T cells. In kind it is cell-based. To be noted: Homo sapiens, Hs766T; HS 766T cell line; read-out: IC50 (mean ± standard error).
From the text: as §3, §4

Another data set deals with PANC-1 cells. Put plainly: Flow cytometric cell cycle analysis. In kind it is cell-based, human. Particulars: tested for 24, 48 and 72 hrs. Here is the method:
The noise was cleared. […] After 72 hrs all the cells (including floaters) were collected, the adhered cells were trypsinized and collected as well. The cells were then centrifuged in a 50 mL centrifuge tube. The pellet was washed with PBS and reconstituted in 500 μL PBS. The cells were then fixed in ice cold ethanol by adding the ethanol dropwise while gently vortexing the cells. Stored at 4° C. for overnight. The cells were then centrifuged, and the pellet reconstituted in Guava cell cycle reagent and analyzed in a Guava flow cytometer. A similar experiment was conducted with normal pancreatic ductal epithelial cells (NPC) and the drug treatment was done according to the IC50 values observed in the 2D assay conducted on them (Table E). Please note that 2N represents G0/G1 and 4N for G2 phases.
After 72 hrs all the cells (including floaters) were collected, the adhered cells were trypsinized and collected as well. The cells were then centrifuged in a 50 mL centrifuge tube. The pellet was washed with PBS and reconstituted in 500 μL PBS. The cells were then fixed in ice cold ethanol by adding the ethanol dropwise while gently vortexing the cells. […] The cells were then centrifuged, and the pellet reconstituted in Guava cell cycle reagent and analyzed in a Guava flowcytometer. […] First set of data with PANC-1 cells were analyzed by using FlowJo software, the noise was cleared (FIG. 3). […]

[3] abbreviates: PANC-1, 2D-culture, SRB, 72 hrs, average of 3 runs.
The mark [4] stands for this setting: 2D-culture, SRB, average of 3 runs.

Read-outs that look alike come from different tables or passages of the source.

The term IC50 denotes the concentration that inhibits the measured activity by half. As usually defined, the melting point is the temperature of the solid-liquid transition.

Consider `O=C1[C@@H](OS(=O)(=O)N2CCCC2)[C@H](c2ccc(F)cn2)N1c1cc2c3ccccc3ccc2c2ccccc12` (racemic) [Compound I, (±)-Trans-N-(chrysen-6-yl)-2-(5-fluoropyridin-2-yl)-4-oxoazetidin-3-yl pyrrolidine-1-sulfonate], for which the melting point lay within 205 to 206 °C. Moreover, the IC50 in data set [1] (setting [3]) worked out at 0.0586 µM. For the same compound, in data set [2] (setting [4]), the IC50 stood at 0.201 µM.

The compound `CS(=O)(=O)O[C@@H]1C(=O)N(c2cc3c4ccccc4ccc3c3ccccc23)[C@H]1c1ccc(F)cn1` (racemic) [(±)-Trans-N-(chrysen-6-yl)-2-(5-fluoropyridin-2-yl)-4-oxoazetidin-3-yl methanesulfonate] registered a melting point of 253 to 254 °C.

The compound `Cc1ccc(S(=O)(=O)O[C@@H]2C(=O)N(c3cc4c5ccccc5ccc4c4ccccc34)[C@H]2c2ccc(F)cn2)cc1` (racemic) [(±)-Trans-N-(chrysen-6-yl)-2-(5-fluoropyridin-2-yl)-4-oxoazetidin-3-yl 4-methylbenzenesulfonate] showed a melting point of 220 to 221 °C.

In the case of `O=C=NS(=O)(=O)O[C@@H]1C(=O)N(c2cc3c4ccccc4ccc3c3ccccc23)[C@H]1c1ccc(F)cn1` (racemic) [K, (±)-Trans-N-(chrysen-6-yl)-2-(5-fluoropyridin-2-yl)-4-oxoazetidin-3-yl sulfurisocyanatidate], the IC50 in data set [1] (PANC-1, 72 h) was determined as 0.0296 µM; in data set [2], 0.416 µM.

For the compound `O=C1[C@@H](OS(=O)(=O)C2CC2)[C@H](c2ccc(F)cn2)N1c1cc2c3ccccc3ccc2c2ccccc12` (racemic) [F, (±)-Trans-N-(chrysen-6-yl)-2-(5-fluoropyridin-2-yl)-4-oxoazetidin-3-yl cyclopropanesulfonate], the melting point fell in the range of 180 to 181 °C. The IC50 in data set [1] (setting [3]) turned out to be 0.0272 µM. In addition, in the data set on PANC-1 tumorspheres, the “activity in 3D-tumorsphere formation assay compared with 2D-culture” value (shortened to “activity … compared with 2D-culture”) is recorded as “higher activity in 3D-tumorphere formation assay than 2D-culture” and the IC50 amounted to 0.0191 µM. Further, in data set [2] (setting [4]), the IC50 was 0.356 µM.

For `C[Si](C)(C)CCS(=O)(=O)O[C@@H]1C(=O)N(c2cc3c4ccccc4ccc3c3ccccc23)[C@H]1c1ccc(F)cn1` (racemic) [H, (±)-Trans-N-(chrysen-6-yl)-2-(5-fluoropyridin-2-yl)-4-oxoazetidin-3-yl 2-(trimethylsilyl)ethane-1-sulfonate], the melting point fell in the range of 210 to 211 °C. Moreover, in data set [1] (setting [3]), the half-maximal inhibitory concentration (IC50) amounted to 0.0304 µM. Further, in the data set on HPAF-II, the IC50 was found to be 0.66 ± 0.12 µM. Moreover, the IC50 in the data set on HS 766T amounted to 0.79 ± 0.12 µM. Also, the half-inhibitory concentration (IC50) in data set [2] (setting [4]) stood at 0.0485 µM.

Regarding `CN1CCN(S(=O)(=O)O[C@@H]2C(=O)N(c3cc4c5ccccc5ccc4c4ccccc34)[C@H]2c2ccc(F)cn2)CC1` (racemic) [G, (±)-Trans-N-(chrysen-6-yl)-2-(5-fluoropyridin-2-yl)-4-oxoazetidin-3-yl 4-methylpiperazine-1-sulfonate], the melting point lay in the range of 146 to 147 °C. Also, the IC50 in data set [1] (setting [3]) was determined as 0.00269 µM. In the data set with HPAF-II, the IC50 stood at 1.18 ± 0.26 µM. Besides, the IC50 in data set [2] (setting [4]) is 0.00843 µM.

As to `Cc1ccc(S(=O)(=O)O[C@@H]2C(=O)N(c3cc4c5ccccc5ccc4c4ccccc34)[C@H]2c2ccc(F)cn2)cc1` (racemic) [L, (±)-Trans-N-(chrysen-6-yl)-2-(5-fluoropyridin-2-yl)-4-oxoazetidin-3-yl 4-methylbenzenesulfonate], the figures for the IC50 (in data set [1] (setting [3]); in the data set with PANC-1 tumorspheres; in data set [2] (setting [4])) were 0.00338 µM, 0.00457 µM and 0.0133 µM, respectively. Further, in the data set with PANC-1 cells, the “time of maximum cell cycle blockage” value worked out at 72 h.

With `CN(C)S(=O)(=O)O[C@@H]1C(=O)N(c2cc3c4ccccc4ccc3c3ccccc23)[C@H]1c1ccc(F)cn1` (racemic) [J, (±)-Trans-N-(chrysen-6-yl)-2-(5-fluoropyridin-2-yl)-4-oxoazetidin-3-yl dimethylsulfamate], the melting point lay in the range of 196 to 198 °C. The IC50 in data set [1] (setting [3]) was determined as 0.212 µM. For the same compound, in data set [2] (setting [4]), the IC50 is 1.05 µM.

For the compound `N#CC1CN(S(=O)(=O)O[C@@H]2C(=O)N(c3cc4c5ccccc5ccc4c4ccccc34)[C@H]2c2ccc(F)cn2)C1` (racemic) [Compound C, (±)-Trans-N-(chrysen-6-yl)-2-(5-fluoropyridin-2-yl)-4-oxoazetidin-3-yl 3-cyanoazetidine-1-sulfonate], the melting point lay within 212 to 213 °C. Besides, the IC50 in data set [1] (setting [3]) came out at 0.00352 µM. In the data set on PANC-1 tumorspheres, the “activity … compared with 2D-culture” value is listed as “higher activity in 3D-tumorphere formation assay than 2D-culture” and the midpoint of inhibition, the IC50, lay at 0.00233 µM. The IC50 in data set [2] (setting [4]) was determined as 0.0425 µM.

The compound `CC(C)N(C)S(=O)(=O)O[C@@H]1C(=O)N(c2cc3c4ccccc4ccc3c3ccccc23)[C@H]1c1ccc(F)cn1` (racemic) [E, (±)-Trans-N-(chrysen-6-yl)-2-(5-fluoropyridin-2-yl)-4-oxoazetidin-3-yl isopropyl(methyl)sulfamate] gave a melting point of 166 to 167 °C. For the same compound, in data set [1] (setting [3]), the IC50 was determined as 0.00865 µM. In addition, in the data set on HPAF-II, the IC50 stood at 0.5 ± 0.16 µM. Moreover, in the data set on HS 766T, the IC50 worked out at 0.04 µM. In the data set with PANC-1 tumorspheres, the “activity … compared with 2D-culture” value is “higher activity in 3D-tumorphere formation assay than 2D-culture” and the IC50 stood at 0.00625 µM. In addition, in data set [2] (setting [4]), the IC50 is 0.424 µM.

Source of the values: US20210214341A1, “SUBSTITUTED PYRIDINYL AZETIDINONE DERIVATIVES FOR USE IN TREATING CANCER AND OTHER DISEASES” (The Board of Regents of the University of Texas System, priority 2018, published 2021).
